Results taken from ChEMBL document CHEMBL3044873, “Aryl N, N-Dimethylcarbamates, Synergists for Organophosphorus Insecticides against Organophos-phorusresistant Rice Stem Borers” (J Pestic Sci, 1990).

Test system: Chilo suppressalis
Assay: Potentiation of fenitrothion-induced insecticidal activity against OP-resistant Chilo suppressalis Hata-f (rice stem borer) assessed as synergistic ratio at 1:10 fenitrothion to compound ratio relative to fenitrothion alone
Type: functional

Row | Structure (SMILES) | fold change (FC)
1 | CN(C)C(=O)Oc1ccc([N+](=O)[O-])c(Cl)c1 | 6.3
2 | CN(C)C(=O)SCc1ccccc1 [S-BENZYL DIMETHYLCARBAMOTHIOATE] | 1
3 | CC(C)c1cccc(OC(=O)N(C)C)c1 [3-ISOPROPYLPHENYL DIMETHYLCARBAMATE] | 4.3
4 | CN(C)C(=S)Oc1ccc(C#N)cc1 | 2.1
5 | Cc1ccccc1OC(=O)N(C)C [O-TOLYL DIMETHYLCARBAMATE] | 4.3
6 | CCNC(=O)Oc1ccc(C#N)cc1 [4-CYANOPHENYL ETHYLCARBAMATE] | 1.5
7 | Cc1ccc(OC(=O)N(C)C)cc1C [3,4-DIMETHYLPHENYL DIMETHYLCARBAMATE] | 9.5
8 | Cc1cc(OC(=O)N(C)C)cc(C)c1Cl | 11
9 | CN(C)C(=O)Oc1ccc(C#N)cc1 [4-CYANOPHENYL DIMETHYLCARBAMATE] | 14
10 | N#Cc1ccc(OC(=O)Nc2ccccc2)cc1 [4-CYANOPHENYL PHENYLCARBAMATE] | 0.8
11 | CN(C)C(=O)Oc1ccccn1 | 11
12 | Cc1cc(OC(=S)N(C)C)ccc1[N+](=O)[O-] | 1.3
13 | CNC(=O)Oc1ccc(C#N)cc1 [4-CYANOPHENYL METHYLCARBAMATE] | 1.1
14 | CN(C)C(=O)Oc1ccccc1 [PHENYL DIMETHYLCARBAMATE] | 5.8
15 | CSc1ccc(OC(=O)Nc2ccccc2)cc1C | 0.7
16 | CCNC(=O)Oc1ccc([N+](=O)[O-])cc1 [4-NITROPHENYL ETHYLCARBAMATE] | 1.2
17 | CNC(=O)Oc1ccc(SC)c(C)c1 | 0.8
18 | CN(C)C(=O)Oc1cccc(C(C)(C)C)c1 | 3.5
19 | CSc1ccc(OC(=S)N(C)C)cc1 | 2.3
20 | CCN(CC)C(=O)Oc1cc(C)nc(N(C)C)n1 | 13
21 | CN(C)C(=O)Oc1ccc([N+](=O)[O-])cc1Cl | 2.4
22 | CC(C)OC(=O)c1ccc(OC(=O)N(C)C)cc1 [ISOPROPYL 4-(DIMETHYLCARBAMOYLOXY)BENZOATE] | 0.9
23 | CN(C)C(=O)Oc1ccc([N+](=O)[O-])cc1 [4-NITROPHENYL DIMETHYLCARBAMATE] | 10

Row | Structure (SMILES) | fold change (FC)
24 | CCSCCOC(=O)N(C)C [2-(ETHYLTHIO)ETHYL DIMETHYLCARBAMATE] | 1
25 | Cc1cc(C)cc(OC(=O)N(C)C)c1 [3,5-DIMETHYLPHENYL DIMETHYLCARBAMATE] | 5.8
26 | CN(C)C(=O)Oc1ccc([N+](=O)[O-])c(C(F)(F)F)c1 | 8
27 | CN(C)C(=O)Sc1ccc(Cl)cc1 | 1.9
28 | CN(C)C(=O)Oc1ccccc1Cl [2-CHLOROPHENYL DIMETHYLCARBAMATE] | 5.1
29 | CCN(CC)C(=O)Oc1ccc([N+](=O)[O-])cc1 [4-NITROPHENYL DIETHYLCARBAMATE] | 3.3
30 | CN(C)C(=O)OCc1ccccc1 [BENZYL DIMETHYLCARBAMATE] | 0.9
31 | CN(C)C(=O)Oc1ccc(=O)n(-c2ccccc2)n1 | 3.1
32 | CCNC(=O)Oc1ccc(SC)cc1 [4-(METHYLTHIO)PHENYL ETHYLCARBAMATE] | 1.4
33 | CCOC(=O)Nc1ccccc1 [ETHYL PHENYLCARBAMATE] | 0.8
34 | CNC(=O)Oc1ccc(SC)cc1 [4-(METHYLTHIO)PHENYL METHYLCARBAMATE] | 1.1
35 | Cc1cc(OC(=O)N(C)C)nc(Nc2ccccc2)n1 | 2.8
36 | Cc1ccc([N+](=O)[O-])c(OC(=O)N(C)C)c1 | 3.1
37 | CSc1nc(C)cc(OC(=O)N(C)C)n1 | 14
38 | Cc1cc(OC(=O)Nc2ccccc2)ccc1Cl | 0.8
39 | O=C(Nc1ccccc1)Oc1cccc2ccccc12 | 1
40 | Cc1cc(OC(=O)N(C)C)nc(C)n1 | 11
41 | CN(C)C(=O)Oc1ccc([N+](=O)[O-])cc1[N+](=O)[O-] [2,4-DINITROPHENYL DIMETHYLCARBAMATE] | 0.8
42 | CN(C)C(=O)Oc1cc(Cl)c(Cl)cc1Cl [2,4,5-TRICHLOROPHENYL DIMETHYLCARBAMATE] | 5.8
43 | CCN(CC)C(=O)Oc1ccc(SC)c(C)c1 | 4.6
44 | CN(C)C(=O)Oc1nc(Cl)c(Cl)cc1Cl | 4.1
45 | CCN(CC)C(=O)Oc1cc(C)nc(N(CC)CC)n1 | 8.7
46 | Cc1cc(OC(=O)Nc2ccccc2)ccc1[N+](=O)[O-] | 0.9

Row | Structure (SMILES) | fold change (FC)
47 | CC(=O)c1ccc(OC(=O)N(C)C)cc1 [4-ACETYLPHENYL DIMETHYLCARBAMATE] | 6.9
48 | CCOC(=O)/C=C(\C)OC(=O)N(C)C | 1
49 | CN(C)C(=O)OCc1ccc2c(c1)OCO2 | 0.9
50 | CN(C)C(=O)Oc1ccccc1[N+](=O)[O-] [2-NITROPHENYL DIMETHYLCARBAMATE] | 5.8
51 | CCN(CC)C(=O)Oc1ccc([N+](=O)[O-])c(C)c1 | 2.3
52 | CCNC(=O)Oc1ccc(Cl)c(C)c1 | 1.2
53 | Cc1ccc(OC(=O)N(C)C)cc1 [P-TOLYL DIMETHYLCARBAMATE] | 8.1
54 | CNC(=O)Oc1ccc([N+](=O)[O-])cc1 [4-NITROPHENYL METHYLCARBAMATE] | 0.9
55 | CCN(CC)C(=O)Oc1cccc2ccccc12 | 2.5
56 | CN(C)C(=O)Oc1c(Cl)cc(Cl)c2ccccc12 | 1.3
57 | CN(C)C(=O)Oc1ccc(-c2ccccc2)cc1 | 2
58 | Cc1cc(OC(=O)N(C)C)ccc1Cl | 12
59 | CN(C)C(=O)Oc1cccc2cccnc12 | 4.6
60 | CCN(CC)C(=O)Oc1ccc(SC)cc1 [4-(METHYLTHIO)PHENYL DIETHYLCARBAMATE] | 2.9
61 | Cc1cccc(OC(=O)N(C)C)c1 [M-TOLYL DIMETHYLCARBAMATE] | 9.2
62 | COC(=O)c1ccc(OC(=O)N(C)C)cc1 [METHYL 4-(DIMETHYLCARBAMOYLOXY)BENZOATE] | 6.3
63 | COc1nc(C)cc(OC(=O)N(C)C)n1 | 13
64 | CN(C)CCOC(=O)N(C)C [2-(DIMETHYLAMINO)ETHYL DIMETHYLCARBAMATE] | 1
65 | CCC(C)c1ccccc1OC(=O)N(C)C (configuration not stated) | 1.8
66 | Cc1c(OC(=O)N(C)C)cc([N+](=O)[O-])cc1[N+](=O)[O-] | 1.1
67 | Cc1nc(N(C)C)nc(OC(=O)N(C)C)c1C [PIRIMICARB] | 6.3
